Tests used:
[1] = Plasma pharmacokinetics of GS-441524 following oral administration of CAT002 in cynomolgus macaques; type: in vivo
Description: CAT002 (7.8 mg/kg; 4.9 mg/kg-equivalent of the parent nucleoside, GS-441524) was formulated in saline (1.60 mg/mL) and orally administered to fasted male cynomolgus macaques (N=2). GS-441524 is in turn intracellularly converted to the bioactive ATP analogue, GS-443902. GS-443902 is known to have an antiviral activity and affinity for viral polymerase. See Gordon et al. JBC 2020; 295(20): 6785-6797; Tchesnokov et al. JBC 2020: 295(47):16156-16165; Yin et al. Science 2020: 368(6498): 1499-1504. Whole blood samples were collected at the following timepoints (hours) in K2EDTA collection tubes: 0.25, 0.50, 1.00, 2.00, 4.00, 8.00, 24.0, 48.0.
(§1) Sample preparation. Plasma was isolated by protein precipitation in a 96-well plate at 0° C. An aliquot of 20 μL unknown sample, calibration standard, quality control and dilution quality control (if have), single blank, and double blank sample was added to the 96-well plate respectively. Each sample (except the double blank) was quenched with 100 μL of IS1 respectively (double blank sample was quenched with 100 μL of MeOH), and then the mixture was vortex-mixed for 10 min at 800 rpm and centrifuged for 15 min at 3220×g, 4° C. An aliquot of 60 μL supernatant was transferred to another clean 96-well plate and centrifuged for 5 min at 3220×g, 4° C., then the supernatant was directly injected for LC-MS/MS analysis.
LC-MS/MS analysis. Metabolites of interest (CAT002, GS-441524) were then quantified by LC-MS/MS (SCIEX LC-MS/MS-BZ Triple Quad 6500+, ACQUITY UPLC HSS T3 1.8 μm 2.1×50 mm Column; mobile phase A: 0.1% formic acid in water, mobile phase B: 0.1% formic acid in acetonitrile; flow rate: 0.65 mL/min.). Gradient conditions were as follows: 2% B over 0.2 minutes, 2-25% B from 0.2-1.2 minutes, 25-95% from 1.2-1.4 minutes, 95% from 1.4-2.1 minutes, 95-2% from 2.1-2.11 minutes, 2% from 2.11-2.2 minutes). The lower limit of quantification for 1.00 ng/mL for CAT002 and 2.00 ng/mL for GS-441524. Data for both CAT002 and GS-441524 were fitted and analyzed by Phoenix NonWinLin 6.3 using noncompartmental model 200 (extravascular output). […]

[2] = Phosphate buffer stability at 25° C.; type: physicochemical
From the text: (§2) As summarized in Table 8, these studies indicate that CAT002 is an efficient prodrug of GS-441524 that is well-suited for clinical development as an oral agent.

[3] = Human hepatic microsomal stability (+/- mixed cofactors); type: in vitro ADME
[4] = Plasma pharmacokinetics of GS-441524 following oral administration of CAT002 in Sprague-Dawley rats; type: in vivo
Description: CAT002 (16 mg/kg; 10.8 mg/kg-equivalent of the parent nucleoside, GS-441524) was formulated in saline (1.60 mg/mL) and orally administered to fasted male rats (N=2). Whole blood samples were collected at the following timepoints (hours) in K2EDTA collection tubes: 0.25, 0.50, 1.00, 2.00, 4.00, 8.00, 24.0, 48.0.
as §1
LC-MS/MS analysis. Metabolites of interest (CAT002, GS-441524) were then quantified by LC-MS/MS (SCIEX LC-MS/MS-BZ Triple Quad 6500+, ACQUITY UPLC HSS T3 1.8 μm 2.1×50 mm Column; mobile phase A: 0.1% formic acid in water, mobile phase B: 0.1% formic acid in acetonitrile; flow rate: 0.65 mL/min.). Gradient conditions were as follows: 2% B over 0.2 minutes, 2-25% B from 0.2-1.2 minutes, 25-95% from 1.2-1.4 minutes, 95% from 1.4-2.1 minutes, 95-2% from 2.1-2.11 minutes, 2% from 2.11-2.2 minutes). The lower limit of quantification for both CAT002 and GS-441524 was 2.00 ng/mL. Data for both CAT002 and GS-441524 were fitted and analyzed by Phoenix NonWinLin 6.3 using noncompartmental model 200 (extravascular output). Data on directly administered oral GS-441524 were obtained from the NCATS OpenData Portal and are plotted alongside data generated from CAT002 for comparison (FIG. 1).

[5] = Thermodynamic solubility at pH 7.4; type: physicochemical
From the text: as §2

[6] = Human plasma stability at 37° C.
[7] = Human intestinal S9 stability at 37° C.; type: in vitro ADME
From the text: Across all species tested, CAT002 was efficiently metabolized to the core nucleoside GS-441524 when administered orally, indicating efficient first-pass intestinal or hepatic metabolism. Rapid hydrolysis of CAT002 in human intestinal homogenates indicated intestinal metabolism as the primary mechanism of CAT002 hydrolysis.

[8] = Plasma pharmacokinetics of GS-441524 following oral administration of CAT002 in humans; type: in vivo
Description: CAT002 (HCl salt) was administered as excipient-less gelatin capsules to healthy participants (N=2) in the fasted state. Participant 1 (Subject 1) is a healthy person and Participant 2 (Subject 2) is a healthy person. Both Participants 1 and 2 were administered 5.4 mg/kg CAT002 (3 mg/kg-equivalent GS-441524). Whole blood samples were collected at the following timepoints (hours) in K2EDTA collection tubes: 0.5, 1, 3.6, 8, 24, 43. Plasma was isolated by centrifugation and samples were stored at −78° C. before analysis.
In-life PK of orally administered GS-441524. GS-441524 was administered as an excipient-less gelatin capsule (200 mg) to Participant 1 in the fasted state. Whole blood samples were collected at the following timepoints (hours) in K2EDTA collection tubes: 0.5, 1, 3.6, 8, 24, 43. Plasma was isolated by centrifugation and samples were stored at −78° C. before analysis. Sample preparation. An aliquot of 20 μL unknown sample, calibration standard, quality control and dilution quality control (if have), single blank, and double blank sample was added to the 96-well plate respectively. Each sample (except the double blank) was quenched with 100 μL of IS1 respectively (double blank sample was quenched with 100 μL of MeOH), and then the mixture was vortex-mixed for 10 min at 800 rpm and centrifuged for 15 min at 3220×g, 4° C. An aliquot of 60 μL supernatant was transferred to another clean 96-well plate and centrifuged for 5 min at 3220×g, 4° C., then the supernatant was directly injected for LC-MS/MS analysis.
LC-MS/MS analysis. Metabolites of interest (GS-441524) were then quantified by LC-MS/MS (SCIEX LC-MS/MS-BZ Triple Quad 6500+, ACQUITY UPLC HSS T3 1.8 μm 2.1×50 mm Column; mobile phase A: 0.1% formic acid in water, mobile phase B: 0.1% formic acid in acetonitrile; flow rate: 0.65 mL/min.). […] The lower limit of quantification was 1.00 ng/mL. Data for both CAT002 and GS-441524 were fitted and analyzed by Phoenix NonWinLin 6.3 using noncompartmental model 200 (extravascular output) (FIG. 3).

Caco-2 = Caco-2 permeability AB/BA; type: in vitro ADME; conditions: for Caco-2 permeability AB: AB direction; for Caco-2 permeability BA: BA direction; for Caco-2 Efflux: BA/AB
[9] = oral CAT002, analyte GS-441524 in plasma
[10] = oral CAT002 in aqueous solution

((2R,3S,4R,5R)-5-(4-aminopyrrolo[2,1-f][1,2,4]triazin-7-yl)-5-cyano-3,4-dihydroxytetrahydrofuran-2-yl)methyl D-valinate [CAT002]
plasma levels of CAT002 (for determining its half-life) ([1]; oral CAT002, analyte CAT002): either too low or below the limit of quantification
half-life of GS-441524 derived from CAT002 [1, 9]: 8 h
plasma exposure to GS-441524 with respect to Cmax, fold higher than previously reported for equivalent doses of oral GS-441524 in organic solution [1, 10]: approximately 6 fold
Phosphate buffer stability at 25° C., T1/2 ([2]; pH 3.0): pH 3.0: Stable
Phosphate buffer stability at 25° C., T1/2 ([2]; pH 7.4): pH 7.4: 30 hours
Human hepatic microsomal stability, T1/2 [3]: 67 minutes (− cofactors)
plasma levels of CAT002 (for determining its half-life) ([4]; oral CAT002, analyte CAT002): either too low or below the limit of quantification
half-life of GS-441524 derived from CAT002 [4, 9]: 3 h
plasma exposure to GS-441524 with respect to Cmax, fold higher than previously reported for equivalent doses of oral GS-441524 in organic solution [4, 10]: approximately 6 fold
aqueous solubility at neutral pH, fold greater than GS-441524 ([5]; neutral pH, relative to GS-441524): 87 fold
Thermodynamic solubility at pH 7.4 [5]: 3.4 mg/mL
Human plasma stability at 37° C. ([6]; EDTA plasma): EDTA plasma: 195 minutes
Human plasma stability at 37° C. ([6]; Heparin plasma): Heparin plasma: >289.1 minutes
Human intestinal S9 stability at 37° C. [7]: 19.5 min
plasma levels of CAT002 (for determining its half-life) ([8]; oral CAT002, analyte CAT002): either too low or below the limit of quantification
half-life of GS-441524 derived from CAT002 [8, 9]: 7.3 h
plasma exposure of the core nucleoside with respect to Cmax, fold higher than oral solution of GS-441524 at an equivalent per-molar dose ([8]; oral CAT002 powder-in-capsule formulation): approximately 4 fold
Caco-2 permeability AB (Caco-2): 0.55 cm/sec•10^6
Caco-2 permeability BA (Caco-2): 0.45 cm/sec•10^6
Caco-2 Efflux (Caco-2): 0.8

N#C[C@@]1(c2ccc3c(N)ncnn23)O[C@H](CO)[C@@H](O)[C@H]1O [GS-441524, reference compound]
Phosphate buffer stability at 25° C., T1/2 ([2]; pH not specified): Stable
Thermodynamic solubility at pH 7.4 [5]: 0.04 mg/mL
Human plasma stability at 37° C. ([6]; plasma type not specified): Stable
Human intestinal S9 stability at 37° C. [7]: Stable
Caco-2 permeability AB (Caco-2): 0.17 cm/sec•10^6
Caco-2 permeability BA (Caco-2): 2.1 cm/sec•10^6
Caco-2 Efflux (Caco-2): 12.4

From patent US20220227776A1, “PRODRUGS OF 1'-S[…]-NUCLEOSIDE ANALOGUES FOR ANTIVIRAL TREATMENT” (Copycat Sciences Inc., priority 2020, published 2022)
